# Target: T1, EZH2 within the PRC2 complex (Homo sapiens, UniProt Q15910)
# T1 construct: FLAG; made in house; host or cells: Sf9 cells
# Assay: EZH2 methyltransferase scintillation proximity assay (SPA) with PRC2 complex
# Format: biochemical
# Details: 3H-SAM methyl transfer to Histone H3 of HeLa mononucleosomes; 30 min preincubation, 1 hour reaction
# T1 sequence (Q15910 whole entry): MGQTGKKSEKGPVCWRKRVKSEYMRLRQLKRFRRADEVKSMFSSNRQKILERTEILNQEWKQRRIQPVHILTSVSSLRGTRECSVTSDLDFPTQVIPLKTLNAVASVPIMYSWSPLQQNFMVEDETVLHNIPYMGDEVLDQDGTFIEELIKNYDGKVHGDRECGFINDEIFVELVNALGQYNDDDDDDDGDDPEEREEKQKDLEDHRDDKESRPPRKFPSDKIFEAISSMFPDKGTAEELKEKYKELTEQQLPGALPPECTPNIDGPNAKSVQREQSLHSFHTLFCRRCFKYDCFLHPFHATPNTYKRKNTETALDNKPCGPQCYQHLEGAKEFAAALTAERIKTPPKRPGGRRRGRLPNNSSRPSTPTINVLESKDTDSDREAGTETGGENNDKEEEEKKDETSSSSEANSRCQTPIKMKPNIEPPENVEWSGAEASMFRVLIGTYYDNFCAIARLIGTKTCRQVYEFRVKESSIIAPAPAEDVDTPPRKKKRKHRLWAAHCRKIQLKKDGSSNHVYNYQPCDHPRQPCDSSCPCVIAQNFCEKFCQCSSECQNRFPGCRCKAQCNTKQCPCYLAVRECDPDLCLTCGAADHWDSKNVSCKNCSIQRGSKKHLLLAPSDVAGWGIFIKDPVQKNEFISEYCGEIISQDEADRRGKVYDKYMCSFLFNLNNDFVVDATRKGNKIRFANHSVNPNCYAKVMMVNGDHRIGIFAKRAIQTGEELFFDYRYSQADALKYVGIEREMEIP
# T1 sequence (O75530 whole entry partner): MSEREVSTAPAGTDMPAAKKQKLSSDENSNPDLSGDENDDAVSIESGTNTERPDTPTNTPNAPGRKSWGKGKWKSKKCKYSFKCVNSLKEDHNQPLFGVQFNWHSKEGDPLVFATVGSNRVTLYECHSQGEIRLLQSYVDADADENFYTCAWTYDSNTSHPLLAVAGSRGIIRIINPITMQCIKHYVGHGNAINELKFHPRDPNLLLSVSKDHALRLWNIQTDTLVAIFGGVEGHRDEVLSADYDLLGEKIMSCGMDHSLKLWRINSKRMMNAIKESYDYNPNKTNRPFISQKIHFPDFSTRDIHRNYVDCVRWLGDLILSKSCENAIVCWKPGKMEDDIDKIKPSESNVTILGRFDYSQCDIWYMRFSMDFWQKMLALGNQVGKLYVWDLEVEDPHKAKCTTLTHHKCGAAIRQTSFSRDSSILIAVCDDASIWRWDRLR
# T1 sequence (Q15022 whole entry partner): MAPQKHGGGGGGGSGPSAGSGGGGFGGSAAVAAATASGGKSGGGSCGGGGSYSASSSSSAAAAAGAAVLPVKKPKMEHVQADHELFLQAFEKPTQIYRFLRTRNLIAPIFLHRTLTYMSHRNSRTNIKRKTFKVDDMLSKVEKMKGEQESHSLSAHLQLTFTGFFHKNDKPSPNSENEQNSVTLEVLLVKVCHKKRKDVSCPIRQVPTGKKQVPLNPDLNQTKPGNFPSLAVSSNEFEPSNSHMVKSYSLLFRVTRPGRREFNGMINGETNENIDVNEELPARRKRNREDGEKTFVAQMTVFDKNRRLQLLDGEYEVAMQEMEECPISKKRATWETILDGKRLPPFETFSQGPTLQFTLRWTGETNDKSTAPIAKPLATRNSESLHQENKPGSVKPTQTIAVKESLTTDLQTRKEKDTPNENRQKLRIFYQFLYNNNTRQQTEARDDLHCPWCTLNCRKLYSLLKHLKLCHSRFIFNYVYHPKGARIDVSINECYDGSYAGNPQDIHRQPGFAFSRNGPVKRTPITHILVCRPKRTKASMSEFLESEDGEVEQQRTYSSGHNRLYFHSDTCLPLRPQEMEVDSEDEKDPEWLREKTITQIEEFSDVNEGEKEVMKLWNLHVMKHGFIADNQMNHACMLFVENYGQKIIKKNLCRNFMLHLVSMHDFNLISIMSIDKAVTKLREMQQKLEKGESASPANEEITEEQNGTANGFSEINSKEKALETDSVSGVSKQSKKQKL
# T1 sequence (Q09028 whole entry partner): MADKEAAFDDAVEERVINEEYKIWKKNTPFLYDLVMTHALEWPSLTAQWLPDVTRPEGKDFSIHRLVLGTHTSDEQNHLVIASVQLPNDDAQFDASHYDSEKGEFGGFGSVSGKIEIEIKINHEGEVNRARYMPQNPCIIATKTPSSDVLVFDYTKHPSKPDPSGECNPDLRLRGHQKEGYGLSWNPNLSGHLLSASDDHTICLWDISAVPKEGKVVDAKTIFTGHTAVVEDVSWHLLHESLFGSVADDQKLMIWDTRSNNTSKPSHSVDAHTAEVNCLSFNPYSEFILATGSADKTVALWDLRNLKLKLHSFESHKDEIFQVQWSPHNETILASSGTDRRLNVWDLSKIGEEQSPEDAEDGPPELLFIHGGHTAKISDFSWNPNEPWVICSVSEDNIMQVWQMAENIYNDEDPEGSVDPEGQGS
# T1 sequence (Q6ZN18 whole entry partner): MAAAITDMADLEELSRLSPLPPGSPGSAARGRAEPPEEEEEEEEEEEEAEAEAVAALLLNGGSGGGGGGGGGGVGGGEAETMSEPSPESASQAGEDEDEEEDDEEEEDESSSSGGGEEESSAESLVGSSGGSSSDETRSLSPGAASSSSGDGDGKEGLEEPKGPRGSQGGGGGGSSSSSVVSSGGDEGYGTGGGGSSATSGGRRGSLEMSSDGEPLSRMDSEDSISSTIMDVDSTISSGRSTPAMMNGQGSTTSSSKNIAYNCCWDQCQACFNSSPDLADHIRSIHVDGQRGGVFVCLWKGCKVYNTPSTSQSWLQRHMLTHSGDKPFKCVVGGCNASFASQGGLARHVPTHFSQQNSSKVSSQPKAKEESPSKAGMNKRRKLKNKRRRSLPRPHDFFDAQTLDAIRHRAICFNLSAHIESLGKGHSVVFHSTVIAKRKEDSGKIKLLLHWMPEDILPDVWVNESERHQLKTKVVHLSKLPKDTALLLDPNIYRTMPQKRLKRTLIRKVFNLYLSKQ
row,IC50,SMILES
1,3 nM,"CCN(c1cc(Cl)cc(C(=O)NCc2c(C)[nH]c(C)cc2=O)c1C)[C@H]1CC[C@H](N(C)C)CC1 [Example 16, 5-Chloro-N-((2,6-dimethyl-4-oxo-1,4-dihydropyridin-3-yl)methyl)-3-(((trans)-4-(dimethylamino)cyclohexyl)(ethyl)amino)-2-methylbenzamide]"
2,50 nM,"CCN(c1cc(Br)cc(C(=O)NCc2c(C)[nH]c(C)c(N)c2=O)c1C)[C@H]1CC[C@H](N2CCOCC2)CC1 [Example 20, N-((5-Amino-2,6-dimethyl-4-oxo-1,4-dihydropyridin-3-yl)methyl)-5-bromo-3-(ethyl((1r,4r)-4-morpholinocyclohexyl)amino)-2-methylbenzamide]"
3,32 nM,CCN(c1cc(Cl)cc(C(=O)NCc2c(C)[nH]c(C)c(N)c2=O)c1C)C1CCOCC1 [Example 17]
4,40 nM,"CCN(c1cc(Br)cc(C(=O)NCc2c(C)[nH]c(C)cc2=O)c1C)[C@H]1CC[C@H](N(C)C)CC1 [Example 19, 5-Bromo-N-((2,6-dimethyl-4-oxo-1,4-dihydropyridin-3-yl)methyl)-3-(((1r,4r)-4-(dimethylamino)cyclohexyl)(ethyl)amino)-2-methylbenzamide]"
5,32 nM,"CCN(c1cc(Br)cc(C(=O)NCc2c(C)[nH]c(C)c(N)c2=O)c1C)[C@H]1CC[C@H](N(C)C)CC1 [Example 18, N-((5-Amino-2,6-dimethyl-4-oxo-1,4-dihydropyridin-3-yl)methyl)-5-bromo-3-(((1r,4r)-4-(dimethylamino)cyclohexyl)(ethyl)amino)-2-methylbenzamide]"

# Second part, the molecule before the results:
row,SMILES,IC50
1,"Cc1cc(=O)c(CNC(=O)c2cc(Cl)cc(O[C@H]3CC[C@H](N(C)C)CC3)c2C)c(C)[nH]1 [Example 14, 5-Chloro-N-((2,6-dimethyl-4-oxo-1,4-dihydropyridin-3-yl)methyl)-3-(((trans)-4-(dimethylamino)cyclohexyl)oxy)-2-methylbenzamide]",395 nM
2,"Cc1cc(=O)c(CNC(=O)c2cc(Cl)cc(OC3CCN(C(=O)OCc4ccccc4)CC3)c2C)c(C)[nH]1 [Example 1, Benzyl 4-(5-chloro-3-(((2,6-dimethyl-4-oxo-1,4-dihydropyridin-3-yl)methyl)carbamoyl) -2-methylphenoxy)piperidine-1-carboxylate]",200 nM
3,"Cc1cc(=O)c(CNC(=O)c2cc(Cl)cc(OC3CCN(C)CC3)c2C)c(C)[nH]1 [Example 13, 5-Chloro-N-((2,6-dimethyl-4-oxo-1,4-dihydropyridin-3-yl)methyl)-2-methyl-3-((1-methylpiperidin-4-yl)oxy)benzamide]",5000 nM
4,"CCN(c1cc(Br)cc(C(=O)NCc2c(C)[nH]c(C)cc2=O)c1C)C1CCOCC1 [Example 15, 5-Bromo-N-((2,6-dimethyl-4-oxo-1,4-dihydropyridin-3-yl)methyl)-3-(ethyl(tetrahydro-2H-pyran-4-yl)amino)-2-methylbenzamide]",40 nM
5,"Cc1cc(=O)c(CNC(=O)c2cc(Cl)cc(O[C@H]3CC[C@H](C(=O)NCc4ccccc4)CC3)c2C)c(C)[nH]1 [Example 4, 3-(((trans)-4-(Benzylcarbamoyl)cyclohexyl)oxy)-5-chloro-N-((2,6-dimethyl-4-oxo-1,4-dihydropyridin-3-yl)methyl)-2-methylbenzamide]",40 nM
6,"Cc1cc(=O)c(CNC(=O)c2cc(Cl)cc(OC3CCN(C(=O)OC(C)(C)C)CC3)c2C)c(C)[nH]1 [Example 8, tert-Butyl 4-(5-chloro-3-(((2,6-dimethyl-4-oxo-1,4-dihydropyridin-3-yl)methyl)carbamoyl)-2-methylphenoxy)piperidine-1-carboxylate]",795 nM
7,"Cc1cc(=O)c(CNC(=O)c2cc(Cl)cc(OC3CCN(c4ccncn4)CC3)c2C)c(C)o1 [Example 5, 5-Chloro-N-((2,6-dimethyl-4-oxo-4H-pyran-3-yl)methyl)-2-methyl-3-((1-(pyrimidin-4-yl)piperidin-4-yl)oxy)benzamide]",3160 nM
8,"Cc1cc(=O)c(CNC(=O)c2cc(Cl)cc(OC3CCN(c4ccncn4)CC3)c2C)c(C)[nH]1 [Example 3, 5-Chloro-N-((2,6-dimethyl-4-oxo-1,4-dihydropyridin-3-yl)methyl)-2-methyl-3-((1-(pyrimidin-4-yl)piperidin-4-yl)oxy)benzamide]",251 nM
9,"Cc1cc(=O)c(CNC(=O)c2cc(Cl)cc(OC3CCNCC3)c2C)c(C)[nH]1 [Example 9, 5-Chloro-N-((2,6-dimethyl-4-oxo-1,4-dihydropyridin-3-yl)methyl)-2-methyl-3-(piperidin-4-yloxy)benzamide]",2500 nM
10,"Cc1cc(=O)c(CNC(=O)c2cc(Cl)cc(O[C@H]3CC[C@H](N4CCCC4)CC3)c2C)c(C)[nH]1 [Example 12, 5-Chloro-N-((2,6-dimethyl-4-oxo-1,4-dihydropyridin-3-yl)methyl)-2-methyl-3-(((1r,4r)-4-(pyrrolidin-1-yl)cyclohexyl)oxy)benzamide]",795 nM
11,"CCN(c1cc(Cl)cc(C(=O)NCc2c(C)oc(C)cc2=O)c1C)[C@H]1CC[C@H](N(C)C)CC1 [Example 6, 5-Chloro-N-((2,6-dimethyl-4-oxo-4H-pyran-3-yl)methyl)-3-(((trans)-4-(dimethylamino)cyclohexyl)(ethyl)amino)-2-methylbenzamide]",40 nM
12,"Cc1cc(=O)c(CNC(=O)c2cc(Cl)cc(OC3CCOCC3)c2C)c(C)[nH]1 [Example 2, 5-Chloro-N-((2,6-dimethyl-4-oxo-1,4-dihydropyridin-3-yl)methyl)-2-methyl-3-((tetrahydro-2H-pyran-4-yl)oxy)benzamide]",6310 nM

# Reference: patent US9382234B2, “Enhancer of Zeste Homolog 2 inhibitors” (GlaxoSmithKline LLC, priority 2012, dated 2016)
